Test: Antagonist activity against 1-alpha,25-dihydroxy vitamin D3-induced HL60 cell differentiation by NBT reduction method

SMILES | IC50
C=C1/C(=C\C=C2/CCC[C@]3(C)[C@@H]([C@H](C)C[C@H]4OC(=O)C(=C)[C@@H]4CCC)CC[C@@H]23)C[C@@H](O)C[C@@H]1O | 6 nM
C=C1/C(=C\C=C2/CCC[C@]3(C)[C@@H]([C@H](C)C[C@@H]4OC(=O)C(=C)[C@@H]4C)CC[C@@H]23)C[C@@H](O)[C@H](C)[C@@H]1O | 6.8 nM
C=C1/C(=C\C=C2/CCC[C@]3(C)[C@@H]([C@H](C)C[C@H]4OC(=O)C(=C)[C@@H]4CC)CC[C@@H]23)C[C@@H](O)[C@H](C)[C@@H]1O | 6.7 nM
C=C1C(=O)O[C@@H](C[C@@H](C)[C@H]2CC[C@H]3/C(=C/C=C4/C[C@@H](O)C[C@H](O)C4=C)CCC[C@]23C)[C@@H]1CC(C)C | 9.3 nM
C=C1C(=O)O[C@H](C[C@@H](C)[C@H]2CC[C@H]3/C(=C/C=C4/C[C@@H](O)C[C@H](O)C4=C)CCC[C@]23C)[C@@H]1C | 9.2 nM
C=C1/C(=C\C=C2/CCC[C@]3(C)[C@@H]([C@H](C)C[C@H]4OC(=O)C(=C)[C@@H]4C)CC[C@@H]23)C[C@@H](O)C[C@@H]1O | 11 nM
C=C1/C(=C\C=C2/CCC[C@]3(C)[C@@H]([C@H](C)C[C@H]4OC(=O)C(=C)[C@@H]4C)CC[C@@H]23)C[C@@H](O)[C@H](CCCO)[C@@H]1O | 6.2 nM
C=C1C(=O)O[C@H](C[C@@H](C)[C@H]2CC[C@H]3/C(=C/C=C4/C[C@@H](O)[C@H](CCCO)[C@H](O)C4=C)CCC[C@]23C)[C@@H]1C | 6.2 nM
C=C1/C(=C\C=C2/CCC[C@]3(C)[C@@H]([C@H](C)C[C@@H]4OC(=O)C(=C)[C@@H]4CC)CC[C@@H]23)C[C@@H](O)[C@H](C)[C@@H]1O | 6.7 nM
C=C1C[C@@H](C[C@@H](C)[C@H]2CC[C@H]3/C(=C/C=C4/C[C@@H](O)C[C@H](O)C4=C)CCC[C@]23C)OC1=O | 6 nM
C=C1/C(=C\C=C2/CCC[C@]3(C)[C@@H]([C@H](C)C[C@@H]4OC(=O)C(=C)[C@@H]4CC(C)C)CC[C@@H]23)C[C@@H](O)C[C@@H]1O | 9.5 nM
C=C1/C(=C\C=C2/CCC[C@]3(C)[C@@H]([C@H](C)C[C@@H]4OC(=O)C(=C)[C@H]4CC)CC[C@@H]23)C[C@@H](O)[C@H](C)[C@@H]1O | 6.7 nM
C=C1C[C@H](C[C@@H](C)[C@H]2CC[C@H]3/C(=C/C=C4/C[C@@H](O)C[C@H](O)C4=C)CCC[C@]23C)OC1=O | 6.3 nM
C=C1C(=O)O[C@H](C[C@@H](C)[C@H]2CC[C@H]3/C(=C/C=C4/C[C@@H](O)C[C@H](O)C4=C)CCC[C@]23C)[C@@H]1CC | 8.6 nM
C=C1/C(=C\C=C2/CCC[C@]3(C)[C@@H]([C@H](C)C[C@H]4OC(=O)C(=C)[C@@H]4C)CC[C@@H]23)C[C@@H](O)[C@H](C)[C@@H]1O | 8.1 nM
C=C1/C(=C\C=C2/CCC[C@]3(C)[C@@H]([C@H](C)C[C@H]4OC(=O)C(=C)[C@H]4CC)CC[C@@H]23)C[C@@H](O)[C@H](C)[C@@H]1O | 6.7 nM
C=C1C(=O)O[C@@H](C[C@@H](C)[C@H]2CC[C@H]3/C(=C/C=C4/C[C@@H](O)C[C@H](O)C4=C)CCC[C@]23C)[C@@H]1CC | 8.6 nM
C=C1/C(=C\C=C2/CCC[C@]3(C)[C@@H]([C@H](C)C[C@@H]4OC(=O)C(=C)[C@@H]4CCC)CC[C@@H]23)C[C@@H](O)C[C@@H]1O | 6 nM
C=C1C(=O)O[C@@H](C[C@@H](C)[C@H]2CC[C@H]3/C(=C/C=C4/C[C@@H](O)C[C@H](O)C4=C)CCC[C@]23C)[C@@H]1C | 7.7 nM
C=C1/C(=C\C=C2/CCC[C@]3(C)[C@@H]([C@H](C)C[C@@H]4OC(=O)C(=C)[C@@H]4C)CC[C@@H]23)C[C@@H](O)C[C@@H]1O | 7.7 nM

Results, then the compound that gave them:

IC50 | SMILES
6.3 nM | C=C1/C(=C\C=C2/CCC[C@]3(C)[C@@H]([C@H](C)C[C@@H]4OC(=O)C(=C)[C@@H]4CCC)CC[C@@H]23)C[C@@H](O)[C@H](OCCCO)[C@@H]1O
9.3 nM | C=C1/C(=C\C=C2/CCC[C@]3(C)[C@@H]([C@H](C)C[C@H]4OC(=O)C(=C)[C@H]4CC(C)C)CC[C@@H]23)C[C@@H](O)[C@H](CCCO)[C@@H]1O
8.4 nM | C=C1/C(=C\C=C2/CCC[C@]3(C)[C@@H]([C@H](C)C[C@H]4OC(=O)C(=C)[C@H]4CC)CC[C@@H]23)C[C@@H](O)[C@H](CCCO)[C@@H]1O
8.8 nM | C=C1/C(=C\C=C2/CCC[C@]3(C)[C@@H]([C@H](C)C[C@H]4OC(=O)C(=C)[C@H]4CCCC)CC[C@@H]23)C[C@@H](O)[C@H](OCCCO)[C@@H]1O
8.8 nM | C=C1/C(=C\C=C2/CCC[C@]3(C)[C@@H]([C@H](C)C[C@@H]4OC(=O)C(=C)[C@@H]4CCCC)CC[C@@H]23)C[C@@H](O)[C@H](OCCCO)[C@@H]1O
6.1 nM | C=C1C(=O)O[C@H](C[C@@H](C)[C@H]2CC[C@H]3/C(=C/C=C4/C[C@@H](O)[C@H](OCCCO)[C@H](O)C4=C)CCC[C@]23C)[C@@H]1C
8.2 nM | C=C1C(=O)O[C@H](C[C@@H](C)[C@H]2CC[C@H]3/C(=C/C=C4/C[C@@H](O)C[C@H](O)C4=C)CCC[C@]23C)[C@@H]1CCCC
8.8 nM | C=C1/C(=C\C=C2/CCC[C@]3(C)[C@@H]([C@H](C)C[C@@H]4OC(=O)C(=C)[C@@H]4CCCC)CC[C@@H]23)C[C@@H](O)[C@H](CCCO)[C@@H]1O
6.7 nM | C=C1/C(=C\C=C2/CCC[C@]3(C)[C@@H]([C@H](C)C[C@@H]4OC(=O)C(=C)[C@@H]4CCCC)CC[C@@H]23)C[C@@H](O)[C@H](C)[C@@H]1O
6.2 nM | C=C1C(=O)O[C@@H](C[C@@H](C)[C@H]2CC[C@H]3/C(=C/C=C4/C[C@@H](O)[C@H](CCCO)[C@H](O)C4=C)CCC[C@]23C)[C@@H]1C
8.4 nM | C=C1/C(=C\C=C2/CCC[C@]3(C)[C@@H]([C@H](C)C[C@@H]4OC(=O)C(=C)[C@H]4CC)CC[C@@H]23)C[C@@H](O)[C@H](OCCCO)[C@@H]1O
6.1 nM | C=C1C(=O)O[C@@H](C[C@@H](C)[C@H]2CC[C@H]3/C(=C/C=C4/C[C@@H](O)[C@H](OCCCO)[C@H](O)C4=C)CCC[C@]23C)[C@@H]1C
9.3 nM | C=C1/C(=C\C=C2/CCC[C@]3(C)[C@@H]([C@H](C)C[C@H]4OC(=O)C(=C)[C@@H]4CC(C)C)CC[C@@H]23)C[C@@H](O)[C@H](OCCCO)[C@@H]1O
6.3 nM | C=C1/C(=C\C=C2/CCC[C@]3(C)[C@@H]([C@H](C)C[C@H]4OC(=O)C(=C)[C@@H]4CCC)CC[C@@H]23)C[C@@H](O)[C@H](OCCCO)[C@@H]1O
8.2 nM | C=C1/C(=C\C=C2/CCC[C@]3(C)[C@@H]([C@H](C)C[C@@H]4OC(=O)C(=C)[C@@H]4CCCC)CC[C@@H]23)C[C@@H](O)C[C@@H]1O
9.3 nM | C=C1/C(=C\C=C2/CCC[C@]3(C)[C@@H]([C@H](C)C[C@@H]4OC(=O)C(=C)[C@H]4CC(C)C)CC[C@@H]23)C[C@@H](O)[C@H](OCCCO)[C@@H]1O
6.3 nM | C=C1/C(=C\C=C2/CCC[C@]3(C)[C@@H]([C@H](C)C[C@@H]4OC(=O)C(=C)[C@@H]4CCC)CC[C@@H]23)C[C@@H](O)[C@H](C)[C@@H]1O
9.3 nM | C=C1/C(=C\C=C2/CCC[C@]3(C)[C@@H]([C@H](C)C[C@@H]4OC(=O)C(=C)[C@H]4CC(C)C)CC[C@@H]23)C[C@@H](O)[C@H](CCCO)[C@@H]1O
8.8 nM | C=C1/C(=C\C=C2/CCC[C@]3(C)[C@@H]([C@H](C)C[C@H]4OC(=O)C(=C)[C@@H]4CCCC)CC[C@@H]23)C[C@@H](O)[C@H](OCCCO)[C@@H]1O
8.2 nM | C=C1C(=O)O[C@@H](C[C@@H](C)[C@H]2CC[C@H]3/C(=C/C=C4/C[C@@H](O)C[C@H](O)C4=C)CCC[C@]23C)[C@@H]1CCCC
6.3 nM | C=C1/C(=C\C=C2/CCC[C@]3(C)[C@@H]([C@H](C)C[C@H]4OC(=O)C(=C)[C@H]4CCC)CC[C@@H]23)C[C@@H](O)[C@H](OCCCO)[C@@H]1O
6.3 nM | C=C1/C(=C\C=C2/CCC[C@]3(C)[C@@H]([C@H](C)C[C@H]4OC(=O)C(=C)[C@@H]4CCC)CC[C@@H]23)C[C@@H](O)[C@H](C)[C@@H]1O
6.3 nM | C=C1/C(=C\C=C2/CCC[C@]3(C)[C@@H]([C@H](C)C[C@@H]4OC(=O)C(=C)[C@H]4CCC)CC[C@@H]23)C[C@@H](O)[C@H](C)[C@@H]1O
8.8 nM | C=C1/C(=C\C=C2/CCC[C@]3(C)[C@@H]([C@H](C)C[C@@H]4OC(=O)C(=C)[C@H]4CCCC)CC[C@@H]23)C[C@@H](O)[C@H](OCCCO)[C@@H]1O

Source: BindingDB's records for doi:10.1021/jm060797q (Teikyo University, 2006)
